Tested on: total RNA from PBMCs
Assay: RNA-seq gene expression before and after 4 weeks of amisulpride treatment
Format: in vivo, human
Conditions: for FC, fold-change at week 4 relative to the expression level at inclusion: AC073172.1 / FC, fold-change at week 4 relative to the expression level at inclusion: AC092171.4 / FC, fold-change at week 4 relative to the expression level at inclusion: AC132872.1 / FC, fold-change at week 4 relative to the expression level at inclusion: ACSL5 / FC, fold-change at week 4 relative to the expression level at inclusion: AL133351.4 / FC, fold-change at week 4 relative to the expression level at inclusion: AL391832.3 / FC, fold-change at week 4 relative to the expression level at inclusion: ALG1L13P / FC, fold-change at week 4 relative to the expression level at inclusion: ALPL / FC, fold-change at week 4 relative to the expression level at inclusion: AP000640.1 / FC, fold-change at week 4 relative to the expression level at inclusion: C15orf54 / FC, fold-change at week 4 relative to the expression level at inclusion: CA4 / FC, fold-change at week 4 relative to the expression level at inclusion: CXCR6 / FC, fold-change at week 4 relative to the expression level at inclusion: CYSLTR2 / FC, fold-change at week 4 relative to the expression level at inclusion: DGAT2 / FC, fold-change at week 4 relative to the expression level at inclusion: DHRS13 / FC, fold-change at week 4 relative to the expression level at inclusion: FAT1 / FC, fold-change at week 4 relative to the expression level at inclusion: FBXL13 / FC, fold-change at week 4 relative to the expression level at inclusion: GALNT14 / FC, fold-change at week 4 relative to the expression level at inclusion: GUCY1B3 / FC, fold-change at week 4 relative to the expression level at inclusion: HOMER3 / FC, fold-change at week 4 relative to the expression level at inclusion: KAZN / FC, fold-change at week 4 relative to the expression level at inclusion: KIAA0319 / FC, fold-change at week 4 relative to the expression level at inclusion: LINC00963 / FC, fold-change at week 4 relative to the expression level at inclusion: NFE4 / FC, fold-change at week 4 relative to the expression level at inclusion: NLRP6 / FC, fold-change at week 4 relative to the expression level at inclusion: NLRP12 / FC, fold-change at week 4 relative to the expression level at inclusion: P2RY12 / FC, fold-change at week 4 relative to the expression level at inclusion: P4HA2 / FC, fold-change at week 4 relative to the expression level at inclusion: PLB1 / FC, fold-change at week 4 relative to the expression level at inclusion: SLC4A4 / FC, fold-change at week 4 relative to the expression level at inclusion: TRPC6 / FC, fold-change at week 4 relative to the expression level at inclusion: WLS: 4 weeks amisulpride
Excerpt: The cohort analysed in this study was obtained from the OPTiMiSE clinical trial (http://www.optimisetrial.eu) (29). After providing written informed consent, 491 patients with a first episode psychosis were included and 453 started medication. All patients were diagnosed with schizophrenia, schizophreniform disorder or schizoaffective disorder according to the Diagnostic and Statistical Manual of Mental Disorders, Fourth Edition (DSM-IV) and confirmed on the basis of the Mini International Neuropsychiatric Interview Plus (M.I.N.I. Plus) (30) (table 4). At baseline, patients were medication-naïve or minimally-treated (any antipsychotic medication used for […] 2 weeks in the previous year or for a total of 6 weeks in their lifetime) and were ill for no longer than 2 years. Only subjects involved in the single-treatment arm (phase 1) of the trial were considered for this study (29). All patients were treated for 4 weeks with amisulpride (200-800 mg/day orally). At the end of the 4-week treatment, the blood concentration of antipsychotic used has been determined. This measurement provided a reliable indication of the treatment compliance of individual patients.
A DNase digestion procedure was added after extraction. Total RNA was purified using the RNA Clean & Concentrator™-5 kit following the manufacturer's instructions (Zymo Research Corp., Irvine, USA). RNA quantification was performed on a NanoDrop™ 8000 spectrophotometer, in duplicate. The quality and integrity of the RNA samples were assessed using an Agilent Bioanalyzer 2100 and the RNA6000 Nano Labchip kit (Agilent Technologies). Only samples with an RNA integrity number (RIN) higher than 7 were selected. Three hundred and seventy-six RNA samples fulfilled quality control criteria for RNA-seq analyses, corresponding to two RNA samples (one at inclusion and one after 4 weeks of treatment) for 188 subjects. Forty-eight additional RNAs were available for replication studies, in 24 independent subjects.
All libraries were prepared using the Illumina TruSeq Stranded Total RNA with Ribo-Zero Globin kit (Illumina Inc., San Diego, Calif., U.S.A.), which removes ribosomal RNA and globin mRNA. Libraries were prepared using one microgram of total RNA as initial input and following the standard protocols. After library quality control, 2×100 bp paired-end (PE) sequencing was performed on a HiSeq4000 system (Illumina), pooling a maximum of 6 samples on each lane, in order to reach 40 to 50 million of PE-reads for each sample. The Illumina pipeline was used to generate raw RNA sequencing data (fastq files) for each sample. Sequence quality controls were performed, using FastQC and in-house bioinformatics pipelines, from a sampling of 2×10 million reads in order to assess the levels of read duplicates, adapters, remaining rRNA and the GC content. Reads were trimmed for adapters and low-quality bases (Phred quality score <30) using Trimmomatic software (v.0.32). Reads were then mapped to the Genome Reference Consortium human genome assembly 37 (GRCh37) reference genome (hg19) using Tophat software (v.2.0.13). Read mapping quality was assessed using RNA-SeQC software. Then, gene-level quantification in read counts was performed by HTSeq software (v.0.6.1), using gene annotation from Ensembl v.86. All downstream analyses were conducted using the statistical software R (v.3.2.4) and Bioconductor R packages. Genes with counts-per million (cpm) below 1 in more than two third of the samples were considered unexpressed and removed from the analysis using edgeR package (v.3.12.1). Raw gene counts matrix has been normalized to account for differences in sequencing depth and RNA composition using the “median ratio” method implemented in the DESeq2 package (v.1.16.1). To avoid batch effects as confounding factors, all subjects had their 2 time-points in a same batch. […]

## CCN1CCCC1CNC(=O)c1cc(S(=O)(=O)CC)c(N)cc1OC (centres unmarked) [amisulpride, 4-amino-N-((1-ethyl-2-pyrrolidinyl)methyl)-5-(etgylsulfonyl)-2-methoxybenzamide]
Good responders (n = 113)
  FC, fold-change at week 4 relative to the expression level at inclusion: AC073172.1: 0.72
  FC, fold-change at week 4 relative to the expression level at inclusion: AC092171.4: 0.85
  FC, fold-change at week 4 relative to the expression level at inclusion: AC132872.1: 0.81
  FC, fold-change at week 4 relative to the expression level at inclusion: ACSL5: 1.06
  FC, fold-change at week 4 relative to the expression level at inclusion: AL133351.4: 0.88
  FC, fold-change at week 4 relative to the expression level at inclusion: AL391832.3: 0.88
  FC, fold-change at week 4 relative to the expression level at inclusion: ALG1L13P: 0.89
  FC, fold-change at week 4 relative to the expression level at inclusion: ALPL: 0.79
  FC, fold-change at week 4 relative to the expression level at inclusion: AP000640.1: 0.84
  FC, fold-change at week 4 relative to the expression level at inclusion: C15orf54: 1.18
  FC, fold-change at week 4 relative to the expression level at inclusion: CA4: 0.76
  FC, fold-change at week 4 relative to the expression level at inclusion: CXCR6: 1.14
  FC, fold-change at week 4 relative to the expression level at inclusion: CYSLTR2: 1.13
  FC, fold-change at week 4 relative to the expression level at inclusion: DGAT2: 0.87
  FC, fold-change at week 4 relative to the expression level at inclusion: DHRS13: 0.87
  FC, fold-change at week 4 relative to the expression level at inclusion: FAT1: 1.27
  FC, fold-change at week 4 relative to the expression level at inclusion: FBXL13: 0.85
  FC, fold-change at week 4 relative to the expression level at inclusion: GALNT14: 0.78
  FC, fold-change at week 4 relative to the expression level at inclusion: GUCY1B3: 1.14
  FC, fold-change at week 4 relative to the expression level at inclusion: HOMER3: 0.84
  FC, fold-change at week 4 relative to the expression level at inclusion: KAZN: 0.83
  FC, fold-change at week 4 relative to the expression level at inclusion: KIAA0319: 0.83
  FC, fold-change at week 4 relative to the expression level at inclusion: LINC00963: 0.91
  FC, fold-change at week 4 relative to the expression level at inclusion: NFE4: 0.83
  FC, fold-change at week 4 relative to the expression level at inclusion: NLRP6: 0.81
  FC, fold-change at week 4 relative to the expression level at inclusion: NLRP12: 0.87
  FC, fold-change at week 4 relative to the expression level at inclusion: P2RY12: 1.14
  FC, fold-change at week 4 relative to the expression level at inclusion: P4HA2: 0.89
  FC, fold-change at week 4 relative to the expression level at inclusion: PLB1: 0.85
  FC, fold-change at week 4 relative to the expression level at inclusion: SLC4A4: 1.15
  FC, fold-change at week 4 relative to the expression level at inclusion: TRPC6: 1.26
  FC, fold-change at week 4 relative to the expression level at inclusion: WLS: 0.87
Poor responders (n = 75)
  FC, fold-change at week 4 relative to the expression level at inclusion: AC073172.1: 0.97
  FC, fold-change at week 4 relative to the expression level at inclusion: AC092171.4: 1.06
  FC, fold-change at week 4 relative to the expression level at inclusion: AC132872.1: 1.05
  FC, fold-change at week 4 relative to the expression level at inclusion: ACSL5: 0.99
  FC, fold-change at week 4 relative to the expression level at inclusion: AL133351.4: 1.04
  FC, fold-change at week 4 relative to the expression level at inclusion: AL391832.3: 1.00
  FC, fold-change at week 4 relative to the expression level at inclusion: ALG1L13P: 1.02
  FC, fold-change at week 4 relative to the expression level at inclusion: ALPL: 1.09
  FC, fold-change at week 4 relative to the expression level at inclusion: AP000640.1: 1.00
  FC, fold-change at week 4 relative to the expression level at inclusion: C15orf54: 1.07
  FC, fold-change at week 4 relative to the expression level at inclusion: CA4: 1.07
  FC, fold-change at week 4 relative to the expression level at inclusion: CXCR6: 1.03
  FC, fold-change at week 4 relative to the expression level at inclusion: CYSLTR2: 1.01
  FC, fold-change at week 4 relative to the expression level at inclusion: DGAT2: 1.08
  FC, fold-change at week 4 relative to the expression level at inclusion: DHRS13: 1.04
  FC, fold-change at week 4 relative to the expression level at inclusion: FAT1: 1.20
  FC, fold-change at week 4 relative to the expression level at inclusion: FBXL13: 0.92
  FC, fold-change at week 4 relative to the expression level at inclusion: GALNT14: 1.04
  FC, fold-change at week 4 relative to the expression level at inclusion: GUCY1B3: 1.05
  FC, fold-change at week 4 relative to the expression level at inclusion: HOMER3: 1.09
  FC, fold-change at week 4 relative to the expression level at inclusion: KAZN: 0.94
  FC, fold-change at week 4 relative to the expression level at inclusion: KIAA0319: 0.94
  FC, fold-change at week 4 relative to the expression level at inclusion: LINC00963: 1.08
  FC, fold-change at week 4 relative to the expression level at inclusion: NFE4: 0.95
  FC, fold-change at week 4 relative to the expression level at inclusion: NLRP6: 1.09
  FC, fold-change at week 4 relative to the expression level at inclusion: NLRP12: 1.08
  FC, fold-change at week 4 relative to the expression level at inclusion: P2RY12: 1.10
  FC, fold-change at week 4 relative to the expression level at inclusion: P4HA2: 1.04
  FC, fold-change at week 4 relative to the expression level at inclusion: PLB1: 0.99
  FC, fold-change at week 4 relative to the expression level at inclusion: SLC4A4: 0.93
  FC, fold-change at week 4 relative to the expression level at inclusion: TRPC6: 0.97
  FC, fold-change at week 4 relative to the expression level at inclusion: WLS: 0.98
Good responders only, FDR threshold of 0.1, 16,204 genes expressed in PBMCs
  DEGs before vs after treatment that survived BH-correction: 32 genes

From patent publication US20220290237A1, “METHOD FOR PREDICTING THE RESPONSE OF ANTIPSYCHOTIC DRUGS” (INSERM (INSTITUT NATIONAL DE LA SANTÉ ET DE LA RECHERCHE …, priority 2019, published 2022)
